In ChEMBL document CHEMBL2203015, “Synthesis and biological evaluation of 5-aryloxypyrazole derivatives bearing a rhodanine-3-aromatic acid as potential antimicrobial agents” (Bioorg Med Chem Lett, 2012):
Converted amounts (≈) assume the structure as drawn.

Key:
Format in all cases: functional
Escherichia coli = experiment: Antibacterial activity against Escherichia coli 1356 incubated for 24 hrs serial dilution method; conditions: Escherichia coli, 1356, 24 h
Staphylococcus aureus [1] = experiment: Antibacterial activity against quinolone-resistant Staphylococcus aureus CCARM 3505 incubated for 24 hrs serial dilution method; conditions: CCARM 3505, 24 h
Staphylococcus aureus [2] = experiment: Potency index, ratio of MIC for norfloxacin to MIC for compound against multidrug-resistant Staphylococcus aureus CCARM 3167 incubated for 24 hrs serial dilution method
Staphylococcus aureus [3] = experiment: Antibacterial activity against quinolone-resistant Staphylococcus aureus CCARM 3519 incubated for 24 hrs serial dilution method; conditions: CCARM 3519, 24 h
Staphylococcus aureus [4] = experiment: Potency index, ratio of MIC for norfloxacin to MIC for compound against quinolone-resistant Staphylococcus aureus CCARM 3505 incubated for 24 hrs serial dilution method
Staphylococcus aureus [5] = experiment: Antibacterial activity against multidrug-resistant Staphylococcus aureus CCARM 3167 incubated for 24 hrs serial dilution method; conditions: CCARM 3167, 24 h
Staphylococcus aureus [6] = experiment: Antibacterial activity against Staphylococcus aureus KCTC 209 incubated for 24 hrs serial dilution method; conditions: KCTC 209, 24 h
Staphylococcus aureus [7] = experiment: Antibacterial activity against Staphylococcus aureus RN 4220 incubated for 24 hrs serial dilution method; conditions: RN 4220, 24 h
Staphylococcus aureus [8] = experiment: Potency index, ratio of MIC for norfloxacin to MIC for compound against quinolone-resistant Staphylococcus aureus CCARM 3519 incubated for 24 hrs serial dilution method
Staphylococcus aureus [9] = experiment: Antibacterial activity against Staphylococcus aureus KCTC 503 incubated for 24 hrs serial dilution method; conditions: KCTC 503, 24 h
Staphylococcus aureus [10] = experiment: Antibacterial activity against multidrug-resistant Staphylococcus aureus CCARM 3506 incubated for 24 hrs serial dilution method; conditions: CCARM 3506, 24 h
Staphylococcus aureus [11] = experiment: Potency index, ratio of MIC for norfloxacin to MIC for compound against multidrug-resistant Staphylococcus aureus CCARM 3506 incubated for 24 hrs serial dilution method

Compound	MIC (Escherichia coli) [µg/mL]	MIC (Staphylococcus aureus [1]) [µg/mL]	Ratio (Staphylococcus aureus [2])	MIC (Staphylococcus aureus [3]) [µg/mL]	Ratio (Staphylococcus aureus [4])	MIC (Staphylococcus aureus [5]) [µg/mL]	MIC (Staphylococcus aureus [6]) [µg/mL]	MIC (Staphylococcus aureus [7]) [µg/mL]	Ratio (Staphylococcus aureus [8])	MIC (Staphylococcus aureus [9]) [µg/mL]	MIC (Staphylococcus aureus [10]) [µg/mL]	Ratio (Staphylococcus aureus [11])
Cc1nn(-c2ccccc2)c(Oc2ccc(Br)cc2)c1/C=C1\SC(=S)N([C@@H](Cc2ccccc2)C(=O)O)C1=O	> 64	2 (≈ 3.22 µM)	2	2 (≈ 3.22 µM)	4	2 (≈ 3.22 µM)	> 64	2 (≈ 3.22 µM)	4	> 64	2 (≈ 3.22 µM)	2
Cc1ccc(Oc2c(/C=C3\SC(=S)N([C@@H](Cc4ccccc4)C(=O)O)C3=O)c(C)nn2-c2ccccc2)c(C)c1	> 64	2 (≈ 3.51 µM)	2	2 (≈ 3.51 µM)	4	2 (≈ 3.51 µM)	> 64	2 (≈ 3.51 µM)	4	> 64	2 (≈ 3.51 µM)	2
Cc1nn(-c2ccccc2)c(Oc2ccc3ccccc3c2)c1/C=C1\SC(=S)N([C@@H](Cc2ccccc2)C(=O)O)C1=O	> 64	2 (≈ 3.38 µM)	2	2 (≈ 3.38 µM)	4	2 (≈ 3.38 µM)	> 64	2 (≈ 3.38 µM)	4	> 64	2 (≈ 3.38 µM)	2
Cc1nn(-c2ccccc2)c(Oc2ccc(F)cc2)c1/C=C1\SC(=S)N([C@@H](Cc2ccccc2)C(=O)O)C1=O	> 64	8 (≈ 14.3 µM)	2	8 (≈ 14.3 µM)	4	4 (≈ 7.15 µM)	> 64	8 (≈ 14.3 µM)	4	> 64	8 (≈ 14.3 µM)	2
Cc1nn(-c2ccccc2)c(Oc2ccc(Cl)cc2)c1/C=C1\SC(=S)N([C@@H](Cc2ccccc2)C(=O)O)C1=O	> 64	4 (≈ 6.94 µM)	2	4 (≈ 6.94 µM)	4	2 (≈ 3.47 µM)	> 64	4 (≈ 6.94 µM)	4	> 64	4 (≈ 6.94 µM)	2
Cc1ccccc1Oc1c(/C=C2\SC(=S)N([C@@H](Cc3ccc(O)cc3)C(=O)O)C2=O)c(C)nn1-c1ccccc1	> 64	32 (≈ 56 µM)		32 (≈ 56 µM)		16 (≈ 28 µM)	> 64	16 (≈ 28 µM)		> 64	16 (≈ 28 µM)	
Cc1cccc(Oc2c(/C=C3\SC(=S)N([C@@H](Cc4c[nH]c5ccccc45)C(=O)O)C3=O)c(C)nn2-c2ccccc2)c1	> 64	8 (≈ 13.5 µM)		8 (≈ 13.5 µM)		4 (≈ 6.73 µM)	> 64	4 (≈ 6.73 µM)		> 64	4 (≈ 6.73 µM)	
Cc1nn(-c2ccccc2)c(Oc2cccc(C(F)(F)F)c2)c1/C=C1\SC(=S)N([C@@H](Cc2ccc(O)cc2)C(=O)O)C1=O	> 64	32 (≈ 51.1 µM)		32 (≈ 51.1 µM)		16 (≈ 25.6 µM)	> 64	16 (≈ 25.6 µM)		> 64	16 (≈ 25.6 µM)	
Cc1nn(-c2ccccc2)c(Oc2ccc3ccccc3c2)c1/C=C1\SC(=S)N([C@@H](Cc2c[nH]c3ccccc23)C(=O)O)C1=O	> 64	2 (≈ 3.17 µM)		2 (≈ 3.17 µM)		2 (≈ 3.17 µM)	> 64	2 (≈ 3.17 µM)		> 64	2 (≈ 3.17 µM)	
Cc1ccc(Oc2c(/C=C3\SC(=S)N([C@@H](Cc4ccc(O)cc4)C(=O)O)C3=O)c(C)nn2-c2ccccc2)cc1	> 64	16 (≈ 28 µM)		16 (≈ 28 µM)		8 (≈ 14 µM)	> 64	16 (≈ 28 µM)		> 64	8 (≈ 14 µM)	
Cc1nn(-c2ccccc2)c(Oc2ccc3ccccc3c2)c1/C=C1\SC(=S)N([C@@H](Cc2ccc(O)cc2)C(=O)O)C1=O	> 64	8 (≈ 13.2 µM)		8 (≈ 13.2 µM)		8 (≈ 13.2 µM)	> 64	8 (≈ 13.2 µM)		> 64	8 (≈ 13.2 µM)	
